Measurements taken from patent publication US6465613B1, “Hydrophilic somatostatin analogs” (Tulane University, priority 1998, dated 2002).
Positions of bridges follow the written chain, without caps; N, C: chain ends. Non-standard residues stand in square brackets, D forms with d. Residues, ends and D or L forms follow the SMILES beside them. Phe(4-NH2) = Nc1ccc(C[C@H](N)C(=O)O)cc1; Dab = NCC[C@H](N)C(=O)O

Assays:
[1] = target: T1, human SRIF receptor type 3 (Homo sapiens, UniProt P32745); test: Radioligand binding assay, CHO-K1 membranes, 125I-Tyr11-SRIF; conditions: CHO-K1 cell membranes, 0.05 nM 125I-Tyr11-SRIF
T1 construct: expressed in transfected cells; host or cells: CHO-K1 cells (membranes)
Experimental: (§1) For this study, cell membranes were obtained from homogenates of CHO-K1 cells (Chinese hamster ovary cells) ectopically expressing one of the five known somatostatin receptor subtypes (the cells were transfected with cDNA encoding a somatostatin receptor subtype, according to standard methods (see, e.g., Ausubel et al., Current Protocols in Molecular Biology, John Wiley & Sons, New York, N.Y., 1994)). […] The final assay volume was 0.3 ml. Incubations were terminated by rapid filtration through GF/C filters pre-soaked in 0.3% polyethylenimine using a 2 Brandel rapid filtration module (48 wells each). Each tube and filter was then washed 3 times with 5 ml aliquots of cold buffer.

[2] = target: T2, human SRIF receptor type 5 (Homo sapiens, UniProt P35346); test: as above; conditions: CHO-K1 cell membranes, 0.05 nM 125I-Tyr11-SRIF
T2 construct: expressed in transfected cells; host or cells: CHO-K1 cells (membranes)
Experimental: as §1

[3] = target: T3, human SRIF receptor type 1 (Homo sapiens, UniProt P30872); test: as above; conditions: CHO-K1 cell membranes, 0.05 nM 125I-Tyr11-SRIF
T3 construct: expressed in transfected cells; host or cells: CHO-K1 cells (membranes)
Experimental: as §1

[4] = target: T4, human SRIF receptor type 2 (Homo sapiens, UniProt P30874); test: Radioligand binding assay, CHO-K1 membranes, 125I-MK-678; conditions: CHO-K1 cell membranes
T4 construct: expressed in transfected cells; host or cells: CHO-K1 cells (membranes)
Experimental: as §1

[5] = target: T5, human SRIF receptor type 4 (Homo sapiens, UniProt P31391); test: Radioligand binding assay, CHO-K1 membranes, 125I-Tyr11-SRIF; conditions: CHO-K1 cell membranes, 0.05 nM 125I-Tyr11-SRIF
T5 construct: expressed in transfected cells; host or cells: CHO-K1 cells (membranes)
Experimental: as §1

T5 sequence (P31391 whole entry): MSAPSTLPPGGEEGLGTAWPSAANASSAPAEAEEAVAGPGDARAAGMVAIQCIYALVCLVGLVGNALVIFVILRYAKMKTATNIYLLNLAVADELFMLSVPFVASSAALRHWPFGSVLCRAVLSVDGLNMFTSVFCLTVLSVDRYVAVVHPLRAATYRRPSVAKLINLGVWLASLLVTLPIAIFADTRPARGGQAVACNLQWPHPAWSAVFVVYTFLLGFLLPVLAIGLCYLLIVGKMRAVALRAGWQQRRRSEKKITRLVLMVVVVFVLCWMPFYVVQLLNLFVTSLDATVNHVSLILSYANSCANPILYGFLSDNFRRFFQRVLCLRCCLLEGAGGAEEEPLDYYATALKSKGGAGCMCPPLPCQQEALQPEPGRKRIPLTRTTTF
T3 sequence (P30872 whole entry): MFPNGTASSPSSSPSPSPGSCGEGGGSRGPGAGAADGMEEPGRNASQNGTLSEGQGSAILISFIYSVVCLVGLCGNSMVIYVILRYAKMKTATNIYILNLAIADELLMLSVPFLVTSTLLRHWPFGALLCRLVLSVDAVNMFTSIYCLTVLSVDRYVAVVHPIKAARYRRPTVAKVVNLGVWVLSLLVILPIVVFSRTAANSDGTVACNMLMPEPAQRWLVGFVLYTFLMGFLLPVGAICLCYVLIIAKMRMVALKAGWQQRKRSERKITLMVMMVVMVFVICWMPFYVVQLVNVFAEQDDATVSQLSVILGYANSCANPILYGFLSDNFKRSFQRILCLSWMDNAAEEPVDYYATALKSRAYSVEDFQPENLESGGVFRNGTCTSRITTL
T1 sequence (P32745 whole entry): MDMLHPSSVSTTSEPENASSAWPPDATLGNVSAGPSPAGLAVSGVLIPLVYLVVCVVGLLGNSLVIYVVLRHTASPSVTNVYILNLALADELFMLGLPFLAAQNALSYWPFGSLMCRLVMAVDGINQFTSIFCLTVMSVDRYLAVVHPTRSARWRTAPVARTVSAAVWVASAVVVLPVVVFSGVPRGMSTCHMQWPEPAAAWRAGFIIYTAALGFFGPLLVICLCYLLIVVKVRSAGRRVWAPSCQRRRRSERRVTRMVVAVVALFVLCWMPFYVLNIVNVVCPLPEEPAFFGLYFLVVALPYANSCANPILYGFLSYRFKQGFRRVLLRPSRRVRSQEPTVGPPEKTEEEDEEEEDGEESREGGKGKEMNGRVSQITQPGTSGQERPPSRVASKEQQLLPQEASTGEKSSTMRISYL
T4 sequence (P30874 whole entry): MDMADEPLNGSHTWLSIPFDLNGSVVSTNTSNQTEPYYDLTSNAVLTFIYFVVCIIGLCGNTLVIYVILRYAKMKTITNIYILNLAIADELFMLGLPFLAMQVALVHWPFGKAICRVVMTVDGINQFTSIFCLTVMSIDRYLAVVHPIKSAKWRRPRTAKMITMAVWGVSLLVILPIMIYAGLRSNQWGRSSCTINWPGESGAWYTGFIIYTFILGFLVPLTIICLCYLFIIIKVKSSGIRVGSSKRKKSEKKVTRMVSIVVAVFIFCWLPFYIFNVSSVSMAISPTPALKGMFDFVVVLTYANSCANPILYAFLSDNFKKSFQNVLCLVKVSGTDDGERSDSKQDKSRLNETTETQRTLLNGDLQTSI
T2 sequence (P35346 whole entry): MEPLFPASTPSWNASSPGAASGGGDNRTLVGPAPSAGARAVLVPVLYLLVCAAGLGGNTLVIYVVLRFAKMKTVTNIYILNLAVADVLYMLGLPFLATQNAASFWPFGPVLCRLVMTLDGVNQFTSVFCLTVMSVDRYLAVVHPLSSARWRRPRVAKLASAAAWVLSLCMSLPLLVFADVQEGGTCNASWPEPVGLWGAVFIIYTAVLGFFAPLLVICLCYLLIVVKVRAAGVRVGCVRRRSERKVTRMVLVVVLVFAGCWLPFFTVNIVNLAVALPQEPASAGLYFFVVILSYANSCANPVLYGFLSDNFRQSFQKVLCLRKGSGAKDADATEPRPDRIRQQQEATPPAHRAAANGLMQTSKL

| Kd [1] [nM] | Kd [2] [nM] | Kd [3] [nM] | Kd [4] [nM] | Kd [5] [nM] | SMILES |
| --- | --- | --- | --- | --- | --- |
| 0.91 | 17 | 3.8 | 0.87 | – | C[C@@H](O)[C@H](NC(=O)[C@@H]1CSSC[C@H](NC(=O)[C@@H](CCCCN)NC(=O)[C@@H](Cc2ccc(O)cc2)NC(=O)[C@@H](CCCCN)NC(=O)[C@@H](Cc2ccc(O)cc2)NC(=O)[C@H](N)CCCCN)C(=O)N[C@@H](Cc2ccccc2)C(=O)N[C@H](Cc2c[nH]c3ccccc23)C(=O)N[C@@H](CCCCN)C(=O)N[C@@H]([C@@H](C)O)C(=O)N1)C(N)=O [JF-06-44, D-Lys-D-Tyr-D-Lys-D-Tyr-D-Lys-c[Cys-Phe-D-Trp-Lys-Thr-Cys]-Thr-NH2] (H-[dK][dY][dK][dY][dK]CF[dW]KTCT-NH2; disulfide 6-11) |
| 4.87 | 20 | 20.9 | 1.96 | > 1000 | C[C@@H](O)[C@H](NC(=O)[C@@H]1CSSC[C@H](NC(=O)[C@@H](CCCCN)NC(=O)[C@@H](Cc2ccc(O)cc2)NC(=O)[C@H](N)CCCCN)C(=O)N[C@@H](Cc2ccccc2)C(=O)N[C@H](Cc2c[nH]c3ccccc23)C(=O)N[C@@H](CCCCN)C(=O)N[C@@H]([C@@H](C)O)C(=O)N1)C(N)=O [JF-06-50, D-Lys-D-Tyr-D-Lys-c[Cys-Phe-D-Trp-Lys-Thr-Cys]-Thr-NH2] (H-[dK][dY][dK]CF[dW]KTCT-NH2; disulfide 4-9) |
| 15.1 | 17.3 | 16.9 | 0.38 | 369 | C[C@@H](O)[C@H](NC(=O)[C@@H]1CSSC[C@H](NC(=O)[C@H](CCCCN)NC(=O)[C@H](Cc2ccc(O)cc2)NC(=O)[C@@H](CCCCN)NC(=O)[C@@H](Cc2ccc(O)cc2)NC(=O)[C@H](CCCCN)NC(=O)[C@H](Cc2ccc(O)cc2)NC(=O)[C@H](N)CCCCN)C(=O)N[C@@H](Cc2ccccc2)C(=O)N[C@H](Cc2c[nH]c3ccccc23)C(=O)N[C@@H](CCCCN)C(=O)N[C@@H]([C@@H](C)O)C(=O)N1)C(N)=O [JF-05-85, D-Lys-Tyr-Lys-D-Tyr-D-Lys-Tyr-Lys-c[Cys-Phe-D-Trp-Lys-Thr-Cys]-Thr-NH2] (H-[dK]YK[dY][dK]YKCF[dW]KTCT-NH2; disulfide 8-13) |
| 20.8 | 3 | 1.5 | 0.09 | > 1000 | C[C@@H](O)[C@H](NC(=O)[C@@H]1CSSC[C@H](NC(=O)[C@H](CCCCN)NC(=O)[C@H](Cc2ccc(N)cc2)NC(=O)[C@H](CCCCN)NC(=O)[C@H](Cc2ccc(N)cc2)NC(=O)[C@H](N)CCCCN)C(=O)N[C@@H](Cc2ccccc2)C(=O)N[C@H](Cc2c[nH]c3ccccc23)C(=O)N[C@@H](CCCCN)C(=O)N[C@@H]([C@@H](C)O)C(=O)N1)C(N)=O [JF-06-31, D-Lys-Pap-Lys-Pap-Lys-c[Cys-Phe-D-Trp-Lys-Thr-Cys]-Thr-NH2] (H-[dK][Phe(4-NH2)]K[Phe(4-NH2)]KCF[dW]KTCT-NH2; disulfide 6-11) |
| 14.6 | 3.3 | 12.1 | 0.28 | > 1000 | C[C@@H](O)[C@H](NC(=O)[C@@H]1CSSC[C@H](NC(=O)[C@H](CCCNC(=N)N)NC(=O)[C@H](Cc2ccc(O)cc2)NC(=O)[C@H](CCCNC(=N)N)NC(=O)[C@H](Cc2ccc(O)cc2)NC(=O)[C@H](N)CCCNC(=N)N)C(=O)N[C@@H](Cc2ccccc2)C(=O)N[C@H](Cc2c[nH]c3ccccc23)C(=O)N[C@@H](CCCCN)C(=O)N[C@@H]([C@@H](C)O)C(=O)N1)C(N)=O [JF-05-81, D-Arg-Tyr-Arg-Tyr-Arg-c[Cys-Phe-D-Trp-Lys-Thr-Cys]-Thr-NH2] (H-[dR]YRYRCF[dW]KTCT-NH2; disulfide 6-11) |
| 22.7 | 115 | 6.2 | 1.37 | > 1000 | C[C@@H](O)[C@H](NC(=O)[C@@H]1CSSC[C@H](NC(=O)[C@H](CCN)NC(=O)[C@H](Cc2ccc(O)cc2)NC(=O)[C@H](CCN)NC(=O)[C@H](Cc2ccc(O)cc2)NC(=O)[C@@H](N)CCN)C(=O)N[C@@H](Cc2ccccc2)C(=O)N[C@H](Cc2c[nH]c3ccccc23)C(=O)N[C@@H](CCCCN)C(=O)N[C@@H]([C@@H](C)O)C(=O)N1)C(N)=O [JF-06-45, Dab-Tyr-Dab-Tyr-Dab-c[Cys-Phe-D-Trp-Lys-Thr-Cys]-Thr-NH2] (H-[Dab]Y[Dab]Y[Dab]CF[dW]KTCT-NH2; disulfide 6-11) |
| 6.4 | 13.4 | 4.1 | 0.36 | 515 | C[C@@H](O)[C@H](NC(=O)[C@@H]1CSSC[C@H](NC(=O)[C@H](CCCCN)NC(=O)[C@H](Cc2ccc(O)cc2)NC(=O)[C@H](CCCCN)NC(=O)[C@H](Cc2ccc(O)cc2)NC(=O)[C@H](N)CCCCN)C(=O)N[C@@H](Cc2ccccc2)C(=O)N[C@H](Cc2c[nH]c3ccccc23)C(=O)N[C@@H](CCCCN)C(=O)N[C@@H]([C@@H](C)O)C(=O)N1)C(N)=O [JF-05-59, D-Lys-Tyr-Lys-Tyr-Lys-c[Cys-Phe-D-Trp-Lys-Thr-Cys]-Thr-NH2] (H-[dK]YKYKCF[dW]KTCT-NH2; disulfide 6-11) |
